Test results reported in US20090042993A1, “IDENTIFICATION OF NOVEL POST-TRANSLATIONAL PROTEIN MODIFICATIONS” (priority 2007, published 2009).

Experiments:
[1] = biological target: T1, ER membrane acetyl-CoA transport activity (Cricetulus griseus, UniProt G3H231); assay: Acetyl-CoA transport assay into intact ER vesicles; type: biochemical, Chinese Hamster
T1 sequence (G3H231 1-550): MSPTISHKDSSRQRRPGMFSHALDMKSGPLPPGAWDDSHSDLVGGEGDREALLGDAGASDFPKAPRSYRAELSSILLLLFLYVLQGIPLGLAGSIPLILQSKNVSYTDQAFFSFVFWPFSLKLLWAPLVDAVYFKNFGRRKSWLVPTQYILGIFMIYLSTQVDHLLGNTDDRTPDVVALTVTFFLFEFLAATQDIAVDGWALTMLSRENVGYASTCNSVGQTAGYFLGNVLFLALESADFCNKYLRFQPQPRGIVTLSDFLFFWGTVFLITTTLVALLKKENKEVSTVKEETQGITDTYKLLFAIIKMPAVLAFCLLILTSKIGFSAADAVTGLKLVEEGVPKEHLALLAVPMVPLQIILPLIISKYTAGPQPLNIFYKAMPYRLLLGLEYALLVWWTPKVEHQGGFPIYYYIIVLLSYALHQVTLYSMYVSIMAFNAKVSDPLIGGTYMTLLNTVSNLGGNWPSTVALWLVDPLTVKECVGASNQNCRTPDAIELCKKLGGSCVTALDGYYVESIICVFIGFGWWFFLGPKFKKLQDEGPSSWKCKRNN
Description: Intact vesicles from the endoplasmic reticulum (ER) and the Golgi apparatus were purified on a 10-34% Iodixanol (OptiPrep; Axis-Shield, Norway) continuous gradient as described (Puglielli et al., 2001, Nat. Cell Biol. 3: 905-912). […] Fractions enriched in ER and Golgi markers (also called ER or Golgi vesicles herein) were separated, pooled together, and resuspended in isotonic/cryogenic buffer (0.25 M sucrose and 10 mM Tris-HCl, pH 7.4) in the presence of protease inhibitors (Roche). Latency of ER and Golgi vesicles was determined with the glucose-6-phosphatase (Clairmont et al., 1992, J. Biol. Chem. 267: 3983-3900) and the sialyl-transferase (Puglielli and Hirschberg, 1999, J. Biol. Chem. 274: 35596-35600) methods, respectively. The purity of the preparation was further confirmed by assaying the above enzymatic activities, together with transport of CMP-sialic acid.
Briefly, assays were performed in 100 μl final volume (isotonic/cryogenic buffer) using 25 to 50 μg of ER/Golgi vesicles protein. […] After 5 min at 30° C., reactions were stopped by lowering the temperature to 0-4° C. and by adding 100 μl of ice-cold isotonic/cryogenic buffer (described above). […] Pellets were then dissolved in 0.6 mL of NaOH 1 N; after neutralization with 0.2 mL of 4N HCl, samples were counted by scintillation spectrometry. […]
Asterisk (*) indicates statistical significance (n=3) (P<0.0005). FIG. 5(D): transport of CMP-sialic acid into ER and Golgi intact vesicles was measured as described in (A). […] FIG. 5(E): transport of ATP into ER intact vesicles obtained from control and ceramide-treated CHO cells was measured as described in FIG. 5(A). […]
Translocation was measured as described in the Materials and Methods section. […] FIG. 10(E): transport of ATP into ER intact vesicles obtained from control and ceramide-treated CHO cells was measured as described in FIG. 10(A). […]
Results are expressed as percent of control (no CoA; white bar) and are the average±S.D. Asterisk (*) indicates statistical significance. […]

[2] = test system: ER membrane ATP transport; assay: ATP transport into intact ER vesicles; type: biochemical, Chinese Hamster; conditions: vesicles from control and ceramide-treated cells, 5 and 10 μM solute
From the text: Intact vesicles from the endoplasmic reticulum (ER) and the Golgi apparatus were purified on a 10-34% Iodixanol (OptiPrep; Axis-Shield, Norway) continuous gradient as described (Puglielli et al., 2001, Nat. Cell Biol. 3: 905-912). The complete migration of subcellular markers in a typical gradient is shown in Costantini et al., 2006, EMBO J. 25: 1997-2006; Puglielli et al., 2001, Nat. Cell Biol. 3: 905-912. Fractions enriched in ER and Golgi markers (also called ER or Golgi vesicles herein) were separated, pooled together, and resuspended in isotonic/cryogenic buffer (0.25 M sucrose and 10 mM Tris-HCl, pH 7.4) in the presence of protease inhibitors (Roche). Latency of ER and Golgi vesicles was determined with the glucose-6-phosphatase (Clairmont et al., 1992, J. Biol. Chem. 267: 3983-3900) and the sialyl-transferase (Puglielli and Hirschberg, 1999, J. Biol. Chem. 274: 35596-35600) methods, respectively. The purity of the preparation was further confirmed by assaying the above enzymatic activities, together with transport of CMP-sialic acid. […]
Briefly, assays were performed in 100 μl final volume (isotonic/cryogenic buffer) using 25 to 50 μg of ER/Golgi vesicles protein. […] Pellets were then dissolved in 0.6 mL of NaOH 1 N; after neutralization with 0.2 mL of 4N HCl, samples were counted by scintillation spectrometry. […]

CCCCCCCCCCCCC/C=C/[C@@H](O)[C@H](CO)NC(=O)CCCCC [ceramide, C6-ceramide]
increase in the Vmax of acetyl-CoA transport ([1]; ER vesicles from ceramide treated cells vs untreated): ~30% | Km of acetyl-CoA transport ([1]; ER vesicles from ceramide treated cells, Lineweaver-Burk): comparable to untreated cells | ATP transport into ER vesicles [2]: no apparent difference
